For data set [1], the target named is T1, Glutamate receptor ionotropic, NMDA 2B (Homo sapiens, UniProt Q05586+Q13224). Description: Displacement of [3H]ifenprodyl from NMDA receptor NR2B subunit (unknown origin).
In data set [2] the target is T1, Glutamate receptor ionotropic, NMDA 2B. Description: Displacement of [3H]MK801 from NMDA receptor NR2B subunit (unknown origin).
For data set [3], the target named is Cholinesterase (Homo sapiens, UniProt P06276). The data set is described as follows: Inhibition of BChE (unknown origin).
Chain of Cholinesterase (Homo sapiens, UniProt P06276) (P06276 whole entry, the tested form may be a part): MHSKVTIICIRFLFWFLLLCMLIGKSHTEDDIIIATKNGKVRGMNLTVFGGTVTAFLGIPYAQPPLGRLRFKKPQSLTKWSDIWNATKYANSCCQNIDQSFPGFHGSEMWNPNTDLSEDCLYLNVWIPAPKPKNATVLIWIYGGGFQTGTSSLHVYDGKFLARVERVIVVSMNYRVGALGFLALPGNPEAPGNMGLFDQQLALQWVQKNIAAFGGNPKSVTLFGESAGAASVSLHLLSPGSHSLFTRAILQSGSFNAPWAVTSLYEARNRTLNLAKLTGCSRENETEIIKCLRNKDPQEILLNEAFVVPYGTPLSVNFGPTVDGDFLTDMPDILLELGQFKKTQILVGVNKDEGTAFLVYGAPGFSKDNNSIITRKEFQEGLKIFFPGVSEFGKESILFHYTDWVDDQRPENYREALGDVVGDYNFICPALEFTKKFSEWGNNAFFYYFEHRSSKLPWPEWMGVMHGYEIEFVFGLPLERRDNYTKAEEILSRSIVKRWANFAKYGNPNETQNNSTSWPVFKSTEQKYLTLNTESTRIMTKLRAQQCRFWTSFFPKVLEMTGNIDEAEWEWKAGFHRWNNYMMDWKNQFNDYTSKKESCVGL
Another data set deals with Escherichia coli. Description: Antibacterial activity against Escherichia coli assessed as inhibition of bacterial growth incubated for 24 hrs by agar diffusion assay. The class given is functional, organism-based.
Data set [4] is described as follows: Selectivity index, ratio of CC50 for cytotoxicity against MDBK cells to EC50 for antiviral activity against bovine viral diarrhea virus 1 infected in MDBK cells. The class given is toxicity, cell-based. To be noted: cattle, read-out: Ratio CC50/EC50.
Data set [5] has as its target Glutamate [NMDA] receptor. Description: Displacement of [3H]ifenprodyl from NMDA receptor (unknown origin). In kind it is protein-complex assay, Homo sapiens.
In data set [6] the test system is Bovine viral diarrhea virus 1. The data set is described as follows: Antiviral activity against bovine viral diarrhea virus 1 infected in MDBK cells assessed as reduction in viral replication-induced cell destruction incubated for 3 days. The settings on record: Bovine viral diarrhea virus isolates and strains, 72 h. In kind it is functional, organism-based.
A further data set addresses Acetylcholinesterase (Homo sapiens, UniProt P22303). The data set is described as follows: Inhibition of human erythrocyte AChE incubated for 10 mins by Ellman's method. In kind it is cell-based.
For data set [7], the target named is Cholinesterase (Equus caballus, UniProt P81908). Description: Inhibition of horse serum BChE incubated for 10 mins by Ellman's method. In kind it is cell-free.
Chain of Cholinesterase (Equus caballus, UniProt P81908) (P81908 whole entry): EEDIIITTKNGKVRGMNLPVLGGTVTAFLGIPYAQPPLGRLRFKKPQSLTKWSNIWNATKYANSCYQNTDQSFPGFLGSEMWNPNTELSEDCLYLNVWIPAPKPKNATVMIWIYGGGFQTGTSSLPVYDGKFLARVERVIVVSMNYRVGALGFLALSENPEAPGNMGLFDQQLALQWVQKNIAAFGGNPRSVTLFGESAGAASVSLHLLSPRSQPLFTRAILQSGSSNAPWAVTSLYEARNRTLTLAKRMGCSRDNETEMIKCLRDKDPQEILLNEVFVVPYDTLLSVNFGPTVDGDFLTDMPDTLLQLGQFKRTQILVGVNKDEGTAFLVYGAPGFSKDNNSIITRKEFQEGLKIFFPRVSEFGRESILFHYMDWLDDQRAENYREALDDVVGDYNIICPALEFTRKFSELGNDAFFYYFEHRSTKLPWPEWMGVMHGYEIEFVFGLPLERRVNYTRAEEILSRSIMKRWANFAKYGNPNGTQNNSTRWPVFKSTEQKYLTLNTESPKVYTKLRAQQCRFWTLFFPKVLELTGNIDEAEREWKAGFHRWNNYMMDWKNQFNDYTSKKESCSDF
For the next data set, the system named is L5178Y. The data set is described as follows: Cytotoxicity against mouse L5178Y cells. In kind it is functional, cell-based.

Values after ≈ are worked out from the molar mass of the structure shown. Structures can show the parent of a compound that is named as a salt.

These results are taken from ChEMBL document CHEMBL5252549, “Recent developments on synthesis and biological activities of γ-carboline” (Eur J Med Chem, 2018).

T1 sequence (Q13224 whole entry, one chain of several): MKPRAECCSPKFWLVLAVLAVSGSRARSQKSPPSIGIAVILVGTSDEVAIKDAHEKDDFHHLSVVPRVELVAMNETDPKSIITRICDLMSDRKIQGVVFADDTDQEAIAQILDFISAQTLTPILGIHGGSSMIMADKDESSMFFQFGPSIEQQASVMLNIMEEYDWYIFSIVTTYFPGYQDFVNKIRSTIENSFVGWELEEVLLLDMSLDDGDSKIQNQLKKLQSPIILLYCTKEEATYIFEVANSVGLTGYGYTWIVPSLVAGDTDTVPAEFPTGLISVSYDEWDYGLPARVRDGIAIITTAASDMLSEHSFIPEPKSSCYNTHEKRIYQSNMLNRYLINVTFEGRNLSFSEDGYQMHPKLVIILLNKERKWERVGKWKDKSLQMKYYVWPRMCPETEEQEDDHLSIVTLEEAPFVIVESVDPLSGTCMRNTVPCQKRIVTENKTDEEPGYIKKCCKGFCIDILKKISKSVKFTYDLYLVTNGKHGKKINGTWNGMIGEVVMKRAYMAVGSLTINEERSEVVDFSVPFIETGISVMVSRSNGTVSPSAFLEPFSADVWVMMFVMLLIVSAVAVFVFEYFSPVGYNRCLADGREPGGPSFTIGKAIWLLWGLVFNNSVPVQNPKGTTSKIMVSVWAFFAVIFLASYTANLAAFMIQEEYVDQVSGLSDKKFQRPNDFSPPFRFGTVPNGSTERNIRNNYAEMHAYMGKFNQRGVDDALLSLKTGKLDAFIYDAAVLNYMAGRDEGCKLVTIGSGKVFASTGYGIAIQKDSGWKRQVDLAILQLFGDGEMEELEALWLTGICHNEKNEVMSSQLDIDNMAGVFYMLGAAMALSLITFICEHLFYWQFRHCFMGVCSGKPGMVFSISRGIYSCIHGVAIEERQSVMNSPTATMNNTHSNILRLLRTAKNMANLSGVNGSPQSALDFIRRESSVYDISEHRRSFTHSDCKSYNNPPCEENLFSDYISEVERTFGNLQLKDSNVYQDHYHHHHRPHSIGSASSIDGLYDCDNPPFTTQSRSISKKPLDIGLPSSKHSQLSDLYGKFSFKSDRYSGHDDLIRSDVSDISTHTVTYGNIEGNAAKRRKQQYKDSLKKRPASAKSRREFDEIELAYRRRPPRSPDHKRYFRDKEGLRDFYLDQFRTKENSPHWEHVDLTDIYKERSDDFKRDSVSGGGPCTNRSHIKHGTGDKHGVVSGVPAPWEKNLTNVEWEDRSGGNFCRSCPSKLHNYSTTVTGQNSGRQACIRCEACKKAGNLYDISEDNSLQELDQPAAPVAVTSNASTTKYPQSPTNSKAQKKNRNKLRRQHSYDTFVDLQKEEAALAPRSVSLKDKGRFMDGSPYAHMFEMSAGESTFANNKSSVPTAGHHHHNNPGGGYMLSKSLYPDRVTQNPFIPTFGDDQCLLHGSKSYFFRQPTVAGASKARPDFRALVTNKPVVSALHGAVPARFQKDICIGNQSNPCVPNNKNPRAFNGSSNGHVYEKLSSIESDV
Chain of Acetylcholinesterase (P22303 whole entry): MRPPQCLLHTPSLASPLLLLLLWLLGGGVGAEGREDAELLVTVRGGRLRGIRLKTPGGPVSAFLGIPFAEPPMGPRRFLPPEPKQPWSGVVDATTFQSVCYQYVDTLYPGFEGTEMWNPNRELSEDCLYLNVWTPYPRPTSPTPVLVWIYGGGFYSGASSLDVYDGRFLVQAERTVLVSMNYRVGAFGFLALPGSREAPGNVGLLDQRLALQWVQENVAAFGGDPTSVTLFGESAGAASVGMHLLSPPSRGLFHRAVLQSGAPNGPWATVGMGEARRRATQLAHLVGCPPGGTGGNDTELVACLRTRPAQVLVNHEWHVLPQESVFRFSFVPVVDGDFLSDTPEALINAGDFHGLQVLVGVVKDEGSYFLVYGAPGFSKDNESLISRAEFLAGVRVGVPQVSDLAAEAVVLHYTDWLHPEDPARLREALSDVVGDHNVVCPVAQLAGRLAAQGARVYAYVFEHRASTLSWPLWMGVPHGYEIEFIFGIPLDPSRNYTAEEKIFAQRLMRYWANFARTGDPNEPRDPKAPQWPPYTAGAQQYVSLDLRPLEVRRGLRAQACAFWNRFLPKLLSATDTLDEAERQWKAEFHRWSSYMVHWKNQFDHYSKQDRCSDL

Regarding `CCc1ccc2c(c1)c1c(n2CCC(=O)N2c3ccccc3Sc3ccccc32)CCN(C)C1`, the half-maximal inhibitory concentration (IC50) in [1] is 15.4 µM; in [2] it was 13.2 µM.

In turn, `CCN1CCc2c(c3cc(C)ccc3n2CC(O)Cn2c3c(c4ccccc42)CCCC3)C1` (stereo unspecified) yielded an IC50 against Cholinesterase [3] of 5.23 µM.

On to `CN1CCc2c(c3cc(F)ccc3n2CC(O)Cn2c3c(c4ccccc42)CCCC3)C1` (stereo unspecified), for which the IC50 against Cholinesterase [3] is 5.03 µM.

For `Cn1cc2c3ccccc3n(C)c2c(Cc2ccccc2Cl)c1=O`, in the data set on Escherichia coli, the IC50 was 17 µM.

In [1], `CCN1CCc2c(c3cc(C)ccc3n2-c2c(C(F)(F)F)nc3ccccn23)C1` displayed an IC50 of 39.5 µM.

On to `c1ccc2c(c1)[nH]c1ccncc12`, for which the selectivity ratio in [4] amounted to 20.

Consider `Cc1ccc2c(c1)c1c(n2CCc2ccc(C)nc2)CCN(C)C1` [LATREPIRDINE], for which the IC50 in data set [1] came out at 82.4 µM.

At Cholinesterase [3], `Cc1ccc2c(c1)c1c(n2CC(O)Cn2c3c(c4ccccc42)CCCC3)CCN(C)C1` (stereo unspecified) registered a 50% inhibitory concentration (IC50) of 3.9 µM.

In turn, `CCN1CCc2c(c3cc(C)ccc3n2CC(O)Cn2c3ccccc3c3ccccc32)C1` (stereo unspecified) registered an IC50 in data set [5] of 12.5 µM.

With `CCN1CCc2c(c3cc(F)ccc3n2CCC(=O)N2c3ccccc3Sc3ccccc32)C1`, the results for the concentration for half-maximal inhibition (IC50) in data set [1] and in [2] were 8.8 µM and 15.8 µM, respectively.

For the compound `CN1CCc2c(c3ccccc3n2CC(O)Cn2c3c(c4ccccc42)CCCC3)C1` (stereo unspecified), on Cholinesterase [3], the half-maximal inhibitory concentration (IC50) was 1.06 µM.

As to `CN(C)[C@@H]1C(O)=C(C(N)=O)C(=O)[C@@]2(O)C(O)=C3C(=O)c4c(O)cccc4[C@@](C)(O)[C@H]3C[C@@H]12` [TETRACYCLINE HYDROCHLORIDE], in the data set with Escherichia coli, the IC50 came to 30 µM.

In turn, `CCN1CCc2c(c3cc(F)ccc3n2CC(O)Cn2c3c(c4ccccc42)CCCC3)C1` (stereo unspecified) displayed a half-maximal inhibitory concentration (IC50) at Cholinesterase [3] of 5.83 µM.

Regarding `Cc1ncc2c3ccccc3n(C)c2c1C`, in data set [6], the EC50 stood at 0.0035 µM. Further, the selectivity ratio in data set [4] was determined as 2060.

For the compound `CCN1CCc2c(c3ccccc3n2CCC(=O)N2c3ccccc3Sc3ccccc32)C1`, the IC50 stood at 13.4 µM in [1] and 14.6 µM in [2].

For the compound `CN1CCc2c(c3ccccc3n2Cc2ccccc2C(=O)NCCO[N+](=O)[O-])C1`, the 50% inhibitory concentration (IC50) at Acetylcholinesterase came to 14.8 µM; at Cholinesterase [7], 3.68 µM.

The compound `Nc1nccc(-c2cncc3c2[nH]c2ccccc23)n1` displayed a concentration for a half-maximal effect (EC50) in the data set with L5178Y of 9.1 µg/mL (≈ 34.8 µM).

In data set [1], `Cc1ccc2c(c1)c1c(n2CCC(=O)N(C)c2c(C(F)(F)F)nc3cc(C)ccn23)CCN(C)C1` showed an IC50 of 32.6 µM.

Compound `Cc1ccc2c(c1)c1c(n2CC(O)Cn2c3ccccc3c3ccccc32)CCN(C)C1` (stereo unspecified) had a concentration for half-maximal inhibition (IC50) in [5] of 11.7 µM.

`CCN1CCc2c(c3ccccc3n2CC(O)Cn2c3c(c4ccccc42)CCCC3)C1` (stereo unspecified) displayed a 50% inhibitory concentration (IC50) on Cholinesterase [3] of 2.77 µM.

Compound `COc1ccc2c(c1)c1c(n2CC(O)CN2c3ccccc3Sc3ccccc32)CCN(C)C1` (stereo unspecified) had an IC50 on Cholinesterase [3] of 0.39 µM.
